Results published in ChEMBL document CHEMBL1201861, “Genomics of Drug Sensitity in Cancer screening data, Wellcome Trust Sanger Institute”.

How the values were obtained:
Experiment in all cases: cells
[1] = system: SK-MEL-2; type: functional, cell-based, Homo sapiens; conditions: Homo sapiens, SK-MEL-2;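 further: growth inhibition of human SK-MEL-2 cells measured with a cell viability assay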
Description: SANGER: Inhibition of human SK-MEL-2 cell growth in a cell viability assay.

[2] = system: ES6; type: functional, cell-based; conditions: Homo sapiens;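 further: growth inhibition of human ES6 cells, read out with a cell viability assay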
Description: SANGER: Inhibition of human ES6 cell growth in a cell viability assay.

[3] = system: NCI-H1770; type: functional, cell-based, Homo sapiens; conditions: Homo sapiens, NCI-H1770;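 further: growth inhibition of NCI-H1770 cells determined with a viability readout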
Description: SANGER: Inhibition of human NCI-H1770 cell growth in a cell viability assay.

[4] = system: ES7; type: functional, cell-based, Homo sapiens; conditions: Homo sapiens, ES7;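 further: growth inhibition of cultured human ES7 cells, read out as cell viability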
Description: SANGER: Inhibition of human ES7 cell growth in a cell viability assay.

[5] = system: MPP-89; type: functional, cell-based, Homo sapiens; conditions: Homo sapiens, MPP-89;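 further: growth inhibition of human MPP-89 cells, read out with a cell viability assay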
Description: SANGER: Inhibition of human MPP-89 cell growth in a cell viability assay.

[6] = system: NCI-H1648; type: functional, cell-based, Homo sapiens; conditions: Homo sapiens, NCI-H1648;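 further: cell viability assay measuring inhibition of NCI-H1648 cell growth, from the Sanger screening data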
Description: SANGER: Inhibition of human NCI-H1648 cell growth in a cell viability assay.

[7] = system: HEL; type: functional, cell-based, Homo sapiens; conditions: Homo sapiens, HEL;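 further: growth inhibition of HEL cells, read out with a cell viability assay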
Description: SANGER: Inhibition of human HEL cell growth in a cell viability assay.

[8] = system: L-363; type: functional, cell-based, Homo sapiens; conditions: Homo sapiens, L-363
Description: SANGER: Inhibition of human L-363 cell growth in a cell viability assay.

[9] = system: ES5; type: functional, cell-based, Homo sapiens; conditions: Homo sapiens, ES5;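 further: growth inhibition of human ES5 cells, read out by a cell viability assay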
Description: SANGER: Inhibition of human ES5 cell growth in a cell viability assay.

[10] = system: MOLT-4; type: functional, cell-based, Homo sapiens; conditions: Homo sapiens, MOLT-4;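 further: growth inhibition of MOLT-4 cells, determined with a cell viability readout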
Description: SANGER: Inhibition of human MOLT-4 cell growth in a cell viability assay.

[11] = system: KS-1; type: functional, cell-based; conditions: Homo sapiens;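 further: growth inhibition of KS-1 cells, read out with a cell viability assay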
Description: SANGER: Inhibition of human KS-1 cell growth in a cell viability assay.

[12] = system: L-428; type: functional, cell-based, Homo sapiens; conditions: Homo sapiens, L-428
Description: SANGER: Inhibition of human L-428 cell growth in a cell viability assay.

[13] = system: EW-3; type: functional, cell-based, Homo sapiens; conditions: Homo sapiens, EW-3;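 further: cell viability assay read-out, IC50 reflects inhibition of growth of the EW-3 cells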
Description: SANGER: Inhibition of human EW-3 cell growth in a cell viability assay.

[14] = system: TK-10; type: functional, cell-based, Homo sapiens; conditions: Homo sapiens, TK-10;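 further: growth inhibition of TK-10 cells, read out in a cell viability assay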
Description: SANGER: Inhibition of human TK10 cell growth in a cell viability assay.

[15] = system: A704; type: functional, cell-based; conditions: Homo sapiens;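 further: growth inhibition of human A704 cells, read out with a cell viability assay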
Description: SANGER: Inhibition of human A704 cell growth in a cell viability assay.

[16] = system: NB69; type: functional, cell-based, Homo sapiens; conditions: Homo sapiens, NB69;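 further: growth inhibition of NB69 cells, determined by a cell viability assay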
Description: SANGER: Inhibition of human NB69 cell growth in a cell viability assay.

[17] = system: SK-PN-DW; type: functional, cell-based, Homo sapiens; conditions: Homo sapiens, SK-PN-DW;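 further: growth inhibition measured with a viability assay on these cells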
Description: SANGER: Inhibition of human SK-PN-DW cell growth in a cell viability assay.

[18] = system: HCC2218; type: functional, cell-based, Homo sapiens; conditions: Homo sapiens, HCC2218;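 further: cell viability assay read-out, with IC50 given as the concentration that inhibits growth of the cell line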
Description: SANGER: Inhibition of human HCC2218 cell growth in a cell viability assay.

[19] = system: NCI-H1304; type: functional, cell-based, Homo sapiens; conditions: Homo sapiens, NCI-H1304;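 further: growth inhibition of the cancer cell line, measured in a cell viability assay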
Description: SANGER: Inhibition of human NCI-H1304 cell growth in a cell viability assay.

[20] = system: LU-139; type: functional, cell-based, Homo sapiens; conditions: Homo sapiens, LU-139
Description: SANGER: Inhibition of human LU-139 cell growth in a cell viability assay.

[21] = system: NH-12; type: functional, cell-based, Homo sapiens; conditions: Homo sapiens, NH-12;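 further: growth inhibition of NH-12 cells, read out with a cell viability assay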
Description: SANGER: Inhibition of human NH-12 cell growth in a cell viability assay.

[22] = system: ATN-1; type: functional, cell-based, Homo sapiens; conditions: Homo sapiens, ATN-1;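 further: growth inhibition of human ATN-1 cells, read out with a cell viability assay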
Description: SANGER: Inhibition of human ATN-1 cell growth in a cell viability assay.

[23] = system: CGTH-W-1; type: functional, cell-based, Homo sapiens; conditions: Homo sapiens, CGTH-W-1;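 further: growth inhibition of human CGTH-W-1 cells measured by cell viability assay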
Description: SANGER: Inhibition of human CGTH-W-1 cell growth in a cell viability assay.

[24] = system: NCI-H1838; type: functional, cell-based, Homo sapiens; conditions: Homo sapiens, NCI-H1838;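 further: growth inhibition of NCI-H1838 cells, determined with a cell viability readout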
Description: SANGER: Inhibition of human NCI-H1838 cell growth in a cell viability assay.

[25] = system: NB10; type: functional, cell-based, Homo sapiens; conditions: Homo sapiens, NB10;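 further: growth inhibition of NB10 cells, read out by a cell viability assay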
Description: SANGER: Inhibition of human NB10 cell growth in a cell viability assay.

[26] = system: Mo; type: functional, cell-based, Homo sapiens; conditions: Homo sapiens, Mo
Description: SANGER: Inhibition of human Mo-T cell growth in a cell viability assay.

[27] = system: K562; type: functional, cell-based, Homo sapiens; conditions: Homo sapiens, K562
Description: SANGER: Inhibition of human K-562 cell growth in a cell viability assay.

[28] = system: D-263MG; type: functional, cell-based, Homo sapiens; conditions: Homo sapiens, D-263MG
Description: SANGER: Inhibition of human D-263MG cell growth in a cell viability assay.

[29] = system: SF-539; type: functional, cell-based, Homo sapiens; conditions: Homo sapiens, SF-539;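 further: Read-out is a cell viability assay, with IC50 reflecting inhibition of cell growth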
Description: SANGER: Inhibition of human SF539 cell growth in a cell viability assay.

[30] = system: BB49-HNC; type: functional, cell-based, Homo sapiens; conditions: Homo sapiens, BB49-HNC;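 further: cell viability assay read-out, reported as inhibition of BB49-HNC cell growth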
Description: SANGER: Inhibition of human BB49-HNC cell growth in a cell viability assay.

[31] = system: NCI-H720; type: functional, cell-based, Homo sapiens; conditions: Homo sapiens, NCI-H720;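 further: growth inhibition of human NCI-H720 cells determined by a cell viability assay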
Description: SANGER: Inhibition of human NCI-H720 cell growth in a cell viability assay.

[32] = system: GOTO; type: functional, cell-based, Homo sapiens; conditions: Homo sapiens, GOTO;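 further: growth inhibition of GOTO cells, read out by a cell viability assay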
Description: SANGER: Inhibition of human GOTO cell growth in a cell viability assay.

[33] = system: TE-12; type: functional, cell-based, Homo sapiens; conditions: Homo sapiens, TE-12;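 further: growth inhibition of TE-12 cells, read out by a cell viability assay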
Description: SANGER: Inhibition of human TE-12 cell growth in a cell viability assay.

[34] = system: SF-126; type: functional, cell-based, Homo sapiens; conditions: Homo sapiens, SF-126;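 further: growth inhibition of human SF126 cells, read out with a cell viability assay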
Description: SANGER: Inhibition of human SF126 cell growth in a cell viability assay.

[35] = system: MFM-223; type: functional, cell-based, Homo sapiens; conditions: Homo sapiens, MFM-223
Description: SANGER: Inhibition of human MFM-223 cell growth in a cell viability assay.

[36] = system: IST-MES1; type: functional, cell-based, Homo sapiens; conditions: Homo sapiens, IST-MES1;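 further: growth inhibition of IST-MES1 cells, measured with a cell viability assay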
Description: SANGER: Inhibition of human IST-MES1 cell growth in a cell viability assay.

[37] = system: 697; type: functional, cell-based, Homo sapiens; conditions: Homo sapiens
Description: SANGER: Inhibition of human 697 cell growth in a cell viability assay.

[38] = system: SW684; type: functional, cell-based, Homo sapiens; conditions: Homo sapiens, SW684; read-out: IC50;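 further: growth inhibition of human SW684 cells, measured by a cell viability assay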
Description: SANGER: Inhibition of human SW684 cell growth in a cell viability assay.

[39] = system: TE-6; type: functional, cell-based, Homo sapiens; conditions: Homo sapiens, TE-6;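 further: growth inhibition of TE-6 cells, read out with a cell viability assay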
Description: SANGER: Inhibition of human TE-6 cell growth in a cell viability assay.

[40] = system: COLO-829; type: functional, cell-based, Homo sapiens; conditions: Homo sapiens, COLO-829
Description: SANGER: Inhibition of human COLO-829 cell growth in a cell viability assay.

[41] = system: TE-1; type: functional, cell-based, Homo sapiens; conditions: Homo sapiens, TE-1;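 further: growth inhibition of the human TE-1 cell line, read out with a cell viability assay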
Description: SANGER: Inhibition of human TE-1 cell growth in a cell viability assay.

[42] = system: OS-RC-2; type: functional, cell-based, Homo sapiens; conditions: Homo sapiens, OS-RC-2;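 further: growth inhibition of human OS-RC-2 cells, measured by a cell viability assay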
Description: SANGER: Inhibition of human OS-RC-2 cell growth in a cell viability assay.

[43] = system: SK-NEP-1; type: functional, cell-based, Homo sapiens; conditions: Homo sapiens, SK-NEP-1;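 further: growth inhibition of human SK-NEP-1 cells, read out by a cell viability assay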
Description: SANGER: Inhibition of human SK-NEP-1 cell growth in a cell viability assay.

[44] = system: LS-1034; type: functional, cell-based, Homo sapiens; conditions: Homo sapiens, LS-1034
Description: SANGER: Inhibition of human LS-1034 cell growth in a cell viability assay.

[45] = system: NCI-H1299; type: functional, cell-based; conditions: Homo sapiens;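 further: growth inhibition of human NCI-H1299 cells, read out by a cell viability assay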
Description: SANGER: Inhibition of human NCI-H1299 cell growth in a cell viability assay.

[46] = system: SK-LMS-1; type: functional, cell-based, Homo sapiens; conditions: Homo sapiens, SK-LMS-1;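 further: growth inhibition of human SK-LMS-1 cells, read out with a cell viability assay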
Description: SANGER: Inhibition of human SK-LMS-1 cell growth in a cell viability assay.

[47] = system: NOS-1; type: functional, cell-based, Homo sapiens; conditions: Homo sapiens, NOS-1;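 further: growth inhibition of the human NOS-1 cell line, read out with a cell viability assay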
Description: SANGER: Inhibition of human NOS-1 cell growth in a cell viability assay.

[48] = system: DU-4475; type: functional, cell-based, Homo sapiens; conditions: Homo sapiens, DU-4475
Description: SANGER: Inhibition of human DU-4475 cell growth in a cell viability assay.

[49] = system: MV4-11; type: functional, cell-based, Homo sapiens, MV-4-11; conditions: Homo sapiens, MV4-11;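 further: cell viability readout measuring growth inhibition of human MV-4-11 cells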
Description: SANGER: Inhibition of human MV-4-11 cell growth in a cell viability assay.

[50] = system: NB13; type: functional, cell-based, Homo sapiens; conditions: Homo sapiens, NB13;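 further: cell viability readout measuring growth inhibition of human NB13 cells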
Description: SANGER: Inhibition of human NB13 cell growth in a cell viability assay.

COc1cc(N2CCC(N3CCN(C)CC3)CC2)ccc1Nc1ncc(Cl)c(Nc2ccccc2S(=O)(=O)C(C)C)n1 [TAE-684]
IC50 [1]: > 2000 nM
IC50 [2]: 776 nM
IC50 [3]: > 2000 nM
IC50 [4]: > 2000 nM
IC50 [5]: 579 nM
IC50 [6]: 279 nM
IC50 [7]: 1150 nM
IC50 [8]: 824 nM
IC50 [9]: > 2000 nM
IC50 [10]: > 2000 nM
IC50 [11]: 193 nM
IC50 [12]: > 2000 nM
IC50 [13]: > 2000 nM
IC50 [14]: 1050 nM
IC50 [15]: 1330 nM
IC50 [16]: 318 nM
IC50 [17]: 1260 nM
IC50 [18]: > 2000 nM
IC50 [19]: 1130 nM
IC50 [20]: > 2000 nM
IC50 [21]: > 2000 nM
IC50 [22]: 333 nM
IC50 [23]: > 2000 nM
IC50 [24]: > 2000 nM
IC50 [25]: 1570 nM
IC50 [26]: > 2000 nM
IC50 [27]: > 2000 nM
IC50 [28]: > 2000 nM
IC50 [29]: < 7.81 nM
IC50 [30]: > 2000 nM
IC50 [31]: 1360 nM
IC50 [32]: > 2000 nM
IC50 [33]: 533 nM
IC50 [34]: 1120 nM
IC50 [35]: > 2000 nM
IC50 [36]: 988 nM
IC50 [37]: 432 nM
IC50 [38]: > 2000 nM
IC50 [39]: > 2000 nM
IC50 [40]: > 2000 nM
IC50 [41]: 691 nM
IC50 [42]: > 2000 nM
IC50 [43]: 235 nM
IC50 [44]: 636 nM
IC50 [45]: > 2000 nM
IC50 [46]: 1160 nM
IC50 [47]: 103 nM
IC50 [48]: 1460 nM
IC50 [49]: 394 nM
IC50 [50]: 1370 nM

CC1=C(/C=C/C(C)=C/C=C/C(C)=C/C(=O)O)C(C)(C)CCC1 [TRETINOIN]
IC50 [1]: > 10000 nM
IC50 [2]: > 10000 nM
IC50 [3]: > 10000 nM
IC50 [4]: > 10000 nM
IC50 [5]: > 10000 nM
IC50 [6]: 9740 nM
IC50 [7]: > 10000 nM
IC50 [8]: 2070 nM
IC50 [9]: > 10000 nM
IC50 [10]: > 10000 nM
IC50 [11]: > 10000 nM
IC50 [12]: > 10000 nM
IC50 [13]: 480 nM
IC50 [14]: > 10000 nM
IC50 [15]: > 10000 nM
IC50 [16]: > 10000 nM
IC50 [17]: > 10000 nM
IC50 [18]: > 10000 nM
IC50 [19]: > 10000 nM
IC50 [20]: > 10000 nM
IC50 [21]: > 10000 nM
IC50 [22]: 30.3 nM
IC50 [23]: > 10000 nM
IC50 [24]: > 10000 nM
IC50 [25]: > 10000 nM
IC50 [26]: > 10000 nM
IC50 [27]: > 10000 nM
IC50 [28]: > 10000 nM
IC50 [29]: > 10000 nM
IC50 [30]: > 10000 nM
IC50 [31]: 1030 nM
IC50 [32]: > 10000 nM
IC50 [33]: > 10000 nM
IC50 [34]: > 10000 nM
IC50 [35]: > 10000 nM
IC50 [36]: > 10000 nM
IC50 [37]: > 10000 nM
IC50 [38]: > 10000 nM
IC50 [39]: > 10000 nM
IC50 [40]: > 10000 nM
IC50 [41]: > 10000 nM
IC50 [42]: > 10000 nM
IC50 [43]: 662 nM
IC50 [44]: > 10000 nM
IC50 [45]: > 10000 nM
IC50 [46]: > 10000 nM
IC50 [47]: > 10000 nM
IC50 [48]: > 10000 nM
IC50 [49]: 21 nM
IC50 [50]: 257 nM

NC(=O)c1ccc(N(C(N)=O)c2c(F)cccc2F)nc1-c1ccc(F)cc1F [VX-702]
IC50 [1]: > 2000 nM
IC50 [2]: > 2000 nM
IC50 [3]: > 2000 nM
IC50 [4]: > 2000 nM
IC50 [5]: > 2000 nM
IC50 [6]: > 2000 nM
IC50 [7]: > 2000 nM
IC50 [8]: > 2000 nM
IC50 [9]: > 2000 nM
IC50 [10]: > 2000 nM
IC50 [11]: > 2000 nM
IC50 [12]: > 2000 nM
IC50 [13]: 666 nM
IC50 [14]: > 2000 nM
IC50 [15]: > 2000 nM
IC50 [16]: > 2000 nM
IC50 [17]: > 2000 nM
IC50 [18]: 497 nM
IC50 [19]: > 2000 nM
IC50 [20]: 194 nM
IC50 [21]: > 2000 nM
IC50 [22]: > 2000 nM
IC50 [23]: > 2000 nM
IC50 [24]: > 2000 nM
IC50 [25]: > 2000 nM
IC50 [26]: > 2000 nM
IC50 [27]: > 2000 nM
IC50 [28]: > 2000 nM
IC50 [29]: > 2000 nM
IC50 [30]: > 2000 nM
IC50 [31]: 16.8 nM
IC50 [32]: > 2000 nM
IC50 [33]: > 2000 nM
IC50 [34]: > 2000 nM
IC50 [35]: > 2000 nM
IC50 [36]: > 2000 nM
IC50 [37]: > 2000 nM
IC50 [38]: > 2000 nM
IC50 [39]: > 2000 nM
IC50 [40]: > 2000 nM
IC50 [41]: > 2000 nM
IC50 [42]: > 2000 nM
IC50 [43]: > 2000 nM
IC50 [44]: > 2000 nM
IC50 [45]: > 2000 nM
IC50 [46]: > 2000 nM
IC50 [47]: > 2000 nM
IC50 [48]: > 2000 nM
IC50 [49]: > 2000 nM
IC50 [50]: > 2000 nM
